Reference: ChEMBL document CHEMBL2311459, “Naphthyridinone (NTD) integrase inhibitors: N1 protio and methyl combination substituent effects with C3 amide groups” (Bioorg Med Chem Lett, 2013)

Columns and labels:
[1] = system: Human immunodeficiency virus; assay: Antiviral activity against HIV; type: functional, organism-based; conditions: Human immunodeficiency virus 1
[2] = target: Human immunodeficiency virus type 1 integrase (Human immunodeficiency virus 1, UniProt Q7ZJM1); assay: Inhibition of HIV1 integrase strand transfer activity
Chain of Human immunodeficiency virus type 1 integrase (Q7ZJM1 whole entry): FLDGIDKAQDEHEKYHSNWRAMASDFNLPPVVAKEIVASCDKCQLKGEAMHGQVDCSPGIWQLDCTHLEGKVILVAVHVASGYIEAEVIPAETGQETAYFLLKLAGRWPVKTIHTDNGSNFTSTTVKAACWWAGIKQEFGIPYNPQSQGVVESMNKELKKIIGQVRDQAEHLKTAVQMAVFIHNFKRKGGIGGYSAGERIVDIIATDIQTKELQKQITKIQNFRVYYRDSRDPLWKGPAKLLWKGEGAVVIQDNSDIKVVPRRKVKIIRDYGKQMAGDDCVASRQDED

[3] = system: Human immunodeficiency virus; assay: Antiviral activity against HIV in presence of 40 mg/mL of purified human serum albumin; type: functional, organism-based; conditions: Human immunodeficiency virus 1
[4] = system: Human immunodeficiency virus; assay: Antiviral activity against HIV infected in human MT4 cells; type: functional, organism-based; conditions: Human immunodeficiency virus 1, MT4
[5] = Therapeutic index, ratio of cytotoxicity against human MT4 cells to antiviral activity against HIV; type: cell-based; conditions: read-out: TI
[6] = AUC in CD rat at 5 mg/kg, po; type: ADME, organism-based; set-up: dose 5 mg/kg, route oral; conditions: plasma
[7] = Ratio of plasma concentration in CD rat at 1 mg/kg, iv and 5 mg/kg, po after 24 hrs to IC50 for HIV in presence of 40 mg/mL of purified human serum albumin; type: ADME, organism-based; conditions: in vivo
[8] = AUC in dog at 5 mg/kg, po; type: ADME, organism-based, Canis lupus familiaris; set-up: dose 5 mg/kg, route oral; conditions: plasma
[9] = Ratio of plasma concentration in dog at 1 mg/kg, iv and 5 mg/kg, po after 24 hrs to IC50 for HIV in presence of 40 mg/mL of purified human serum albumin; type: ADME, organism-based; conditions: in vivo
[10] = Half life in CD rat at 1 mg/kg, iv and 5 mg/kg, po; type: ADME, organism-based; conditions: in vivo
[11] = Ratio of plasma concentration in cynomolgus monkey at 1 mg/kg, iv and 5 mg/kg, po after 24 hrs to IC50 for HIV in presence of 40 mg/mL of purified human serum albumin; type: ADME, organism-based; conditions: in vivo
[12] = Plasma clearance in cynomolgus monkey at 1 mg/kg, iv and 5 mg/kg, po; type: ADME, organism-based, Macaca fascicularis
[13] = AUC (0 to 24 hrs) in cynomolgus monkey at 5 mg/kg, po; type: ADME, organism-based, Macaca fascicularis; set-up: time < 24 hr, dose 5 mg/kg, route oral; conditions: plasma
[14] = Half life in dog at 1 mg/kg, iv and 5 mg/kg, po; type: ADME, organism-based, Canis lupus familiaris; conditions: in vivo
[15] = Half life in cynomolgus monkey at 1 mg/kg, iv and 5 mg/kg, po; type: ADME, organism-based, Macaca fascicularis; conditions: in vivo
[16] = Plasma clearance in dog at 1 mg/kg, iv and 5 mg/kg, po; type: ADME, organism-based, Canis lupus familiaris

| Structure (SMILES) | IC50 [1] [nM] | IC50 [2] [nM] | IC50 [3] [nM] | also measured |
| --- | --- | --- | --- | --- |
| C[C@H](O)CNC(=O)c1c(O)c2ncc(Cc3ccc(F)cc3)cc2[nH]c1=O | 7 | 3 | 78 |  |
| Cn1c(=O)c(C(=O)NCCCN2CCCC2=O)c(O)c2ncc(Cc3ccc(F)cc3)cc21 | 2 | 16 | 15 |  |
| Cn1c(=O)c(C(=O)NCCN2CCOCC2)c(O)c2ncc(Cc3ccc(F)cc3)cc21 | 4 | 13 | 23 | IC50 [4]: 64 nM; selectivity ratio [5]: 165 |
| Cn1c(=O)c(C(=O)NCCN2CCNC2=O)c(O)c2ncc(Cc3ccc(F)cc3)cc21 | 2 | 5 | 9 | AUC [6]: 3550 ng·h/mL; Ratio [7]: 0; IC50 [4]: 11 nM; selectivity ratio [5]: 1620 |
| CC(=O)NCCNC(=O)c1c(O)c2ncc(Cc3ccc(F)cc3)cc2n(C)c1=O | 2 | 5 | 12 | IC50 [4]: 22 nM; selectivity ratio [5]: 807 |
| CN(CCNC(=O)c1c(O)c2ncc(Cc3ccc(F)cc3)cc2n(C)c1=O)S(C)(=O)=O | 1 | 5 | 7 | AUC [6]: 5810 ng·h/mL; Ratio [7]: 1.7; IC50 [4]: 7 nM; selectivity ratio [5]: > 7200 |
| CN(CCNC(=O)c1c(O)c2ncc(Cc3ccc(F)cc3)cc2[nH]c1=O)S(C)(=O)=O | 9 | 4 | 49 |  |
| O=C(NC1CCS(=O)(=O)CC1)c1c(O)c2ncc(Cc3ccc(F)cc3)cc2[nH]c1=O | 48 | 9 | 170 |  |
| CSCCNC(=O)c1c(O)c2ncc(Cc3ccc(F)cc3)cc2[nH]c1=O | 5 | 5 | 256 |  |
| C[C@H](CO)NC(=O)c1c(O)c2ncc(Cc3ccc(F)cc3)cc2[nH]c1=O | 7 | 5 | 33 | AUC [6]: 6370 ng·h/mL; Ratio [7]: 0; IC50 [4]: 20 nM; selectivity ratio [5]: > 400 |
| C[C@@H](CO)NC(=O)c1c(O)c2ncc(Cc3ccc(F)cc3)cc2[nH]c1=O | 6 | 4 | 19 |  |
| CC(C)(CO)NC(=O)c1c(O)c2ncc(Cc3ccc(F)cc3)cc2[nH]c1=O | 2 | 3 | 19 |  |
| C[C@@H](O)CNC(=O)c1c(O)c2ncc(Cc3ccc(F)cc3)cc2[nH]c1=O | 7 | 6 | 282 |  |
| CC(C)(CO)CNC(=O)c1c(O)c2ncc(Cc3ccc(F)cc3)cc2[nH]c1=O | 4 | 4 | 41 |  |
| Cn1c(=O)c(C(=O)NCC(F)F)c(O)c2ncc(Cc3ccc(F)cc3)cc21 | 1 | 5 | 2900 |  |
| Cn1c(=O)c(C(=O)NCCCO)c(O)c2ncc(Cc3ccc(F)cc3)cc21 | 1 | 5 | 40 |  |
| C[C@H](CO)NC(=O)c1c(O)c2ncc(Cc3ccc(F)cc3)cc2n(C)c1=O | 2 | 8 | 11 | IC50 [4]: 4 nM; selectivity ratio [5]: > 12500 |
| C[C@@H](CO)NC(=O)c1c(O)c2ncc(Cc3ccc(F)cc3)cc2n(C)c1=O | 1 | 4 | 15 | AUC [6]: 22600 ng·h/mL; AUC [8]: 1120 ng·h/mL; Ratio [9]: 0; Ratio [7]: 2.7 |
| Cn1c(=O)c(C(=O)NC(C)(C)CO)c(O)c2ncc(Cc3ccc(F)cc3)cc21 | 3 | 6 | 28 |  |
| Cn1c(=O)c(C(=O)NC2(CO)CCCC2)c(O)c2ncc(Cc3ccc(F)cc3)cc21 | 3 | 7 | 180 |  |

| Structure (SMILES) | IC50 [1] [nM] | IC50 [2] [nM] | IC50 [3] [nM] | also measured |
| --- | --- | --- | --- | --- |
| C[C@H](O)CNC(=O)c1c(O)c2ncc(Cc3ccc(F)cc3)cc2n(C)c1=O | 2 | 2 | 110 |  |
| C[C@H](CO)CNC(=O)c1c(O)c2ncc(Cc3ccc(F)cc3)cc2n(C)c1=O | 3 | 4 | 18 |  |
| Cn1c(=O)c(C(=O)NCCCN2CCCC2)c(O)c2ncc(Cc3ccc(F)cc3)cc21 | 9 | 6 | 34 |  |
| CC(C)CCNC(=O)c1c(O)c2ncc(Cc3ccc(F)cc3)cc2[nH]c1=O | 8 | 5 | 230 |  |
| CCOCCNC(=O)c1c(O)c2ncc(Cc3ccc(F)cc3)cc2[nH]c1=O | 4 | 9 | 65 |  |
| CC(C)OCCCNC(=O)c1c(O)c2ncc(Cc3ccc(F)cc3)cc2[nH]c1=O | 8 | 9 | 190 |  |
| O=C(NCCO)c1c(O)c2ncc(Cc3ccc(F)cc3)cc2[nH]c1=O | 6 | 5 | 51 | AUC [6]: 3060 ng·h/mL; Ratio [7]: 0.8; IC50 [4]: 80 nM; selectivity ratio [5]: > 250 |
| O=C(NCCCO)c1c(O)c2ncc(Cc3ccc(F)cc3)cc2[nH]c1=O | 4 | 11 | 41 |  |
| O=C(NCCN1CCCCC1)c1c(O)c2ncc(Cc3ccc(F)cc3)cc2[nH]c1=O | 38 | 14 | 172 |  |
| O=C(NCCCN1CCCC1)c1c(O)c2ncc(Cc3ccc(F)cc3)cc2[nH]c1=O | 39 | 23 | 109 |  |
| O=C(NCCCN1CCCC1=O)c1c(O)c2ncc(Cc3ccc(F)cc3)cc2[nH]c1=O | 5 | 4 | 31 |  |
| O=C(NCCN1CCOCC1)c1c(O)c2ncc(Cc3ccc(F)cc3)cc2[nH]c1=O | 6 | 7 | 42 | IC50 [4]: 32 nM; selectivity ratio [5]: > 250 |
| O=C(NCCCN1CCOCC1)c1c(O)c2ncc(Cc3ccc(F)cc3)cc2[nH]c1=O | 6 | 8 | 37 |  |
| CN1CCN(CCCNC(=O)c2c(O)c3ncc(Cc4ccc(F)cc4)cc3[nH]c2=O)CC1 | 28 | 11 | 110 |  |
| CCNC(=O)c1c(O)c2ncc(Cc3ccc(F)cc3)cc2n(C)c1=O | 2 | 4 | 650 |  |
| COCCNC(=O)c1c(O)c2ncc(Cc3ccc(F)cc3)cc2n(C)c1=O |  | 4 | 48 | AUC [6]: 1850 ng·h/mL; AUC [8]: 1240 ng·h/mL; half-life [10]: 4 h; Ratio [9]: 0; Ratio [7]: 0.1 |
| NC(=O)c1c(O)c2ncc(Cc3ccc(F)cc3)cc2[nH]c1=O |  | 45 |  |  |
| COCCNC(=O)c1c(O)c2ncc(Cc3ccc(F)cc3)cc2[nH]c1=O | 5 | 5 | 35 | AUC [6]: 1650 ng·h/mL; Ratio [7]: 0.1 |
| CNC(=O)c1c(O)c2ncc(Cc3ccc(F)cc3)cc2[nH]c1=O | 3 | 6 |  |  |
| CNC(=O)c1c(O)c2ncc(Cc3ccc(F)cc3)cc2n(C)c1=O | 1 | 4 | 55 | AUC [8]: 13200 ng·h/mL; Ratio [11]: 9.2; clearance [12]: 2 mL/min/kg; AUC(0-t) at 24 h [13]: 38600 ng·h/mL; half-life [14]: 1.6 h; Ratio [9]: 0.8; half-life [15]: 3.9 h; clearance [16]: 8.6 mL/min/kg |
